For data set [1], the target named is rat lens aldose reductase (Rattus norvegicus, UniProt P07943). Kind of data set: rat lens aldose reductase inhibition, decrease in absorbence at 340 nm. It is filed as biochemical. The note with it: DL-glyceraldehyde substrate, 25° C., pH 7.0; read-out: IC50 against rat lens aldose reductase inhibitory activity. How it is done: Lens were collected from rat eyes and homogenized with sodium, potassium phosphate buffer (0.135 M, pH 7.0) containing 0.5 mM of phenyl methyl sulphonyl fluoride and 10 mM of β-mercaptoethanol. The homogenate was centrifuged at 10,000 r.p.m for 30 minutes at 4° C. The supernatant was taken as enzyme source. Enzyme reaction was carried out at 25° C. in a quartz cuvette with a 1 cm light path. The assay mixture contained 100 μL of nicotinamide adenine dinucleotide phosphate tetra sodium salt (from a stock solution of 9.6 mM), 100 μL of DL-glyceraldehyde (from a stock solution of 250 mM), 10 μL of inhibitor dissolved in dimethyl sulphoxide, sodium-potassium-phosphate buffer (0.135 M, pH 7.0) to make up the total volume to 3 mL and the reaction was initiated by the addition of 200 μL of enzyme solution. The enzyme reaction was monitored by the decrease in absorbence at 340 nm and compared with enzyme reaction without inhibitor.

A short description of the next data set: solubility in solvents. Type of data set: physicochemical.
The subject of a further data set is diabetic rats. The note with it: via an intragastric tube, compared with ONO-2235; cited from earlier work.

Consider `CCCCCCOc1cc(O)cc2c1C(=O)C(O)=CC2=O` [Compound 1, 2, 6, dihydroxy, 8, hexoxy, 1, 4, naphthaquinone], for which the IC50 in data set [1] came to 26.2 µM. Also, the “solubility in chloroform and hexane” value in the data set “solubility in solvents” (chloroform and hexane) was “slightly soluble”. Further, the “solubility in methanol, ethyl acetate, dimethyl sulphoxide, diethyl ether, sodium bicarbonate, sodium carbonate and sodium hydroxide solution” value in “solubility in solvents” (organic solvents and alkaline solutions) is recorded as “soluble”. For the same compound, the solubility in water result in the data set “solubility in solvents” (water) was “insoluble”.
`O=C(/C=C/c1ccc(O)cc1)c1ccc(O)cc1O` [Isoliquiritigenin, isoliquiritigenin]: the “suppression of sorbitol accumulation in the red blood cells, the sciatic nerve, and the lens” value in the data set on diabetic rats is “suppressed sorbitol accumulation in the red blood cells, the sciatic nerve, and the lens as effectively as ONO-2235”.

The values are drawn from patent publication US6822003B2, “Aldose reductase inhibitor and process for preparation thereof” (Council of Scientific and Industrial Research, priority 2001, dated 2004).
